Data on one compound can be found in publication PMC4915154, “Development of background-free tame fluorescent probes for intracellular live cell imaging” (Nature Communications, 2016).

In one data set the test system is U-2 OS cells. The data set can be described thus: Cell viability assay (MTS). The data set is classed as cell-based, human. Conditions: 0-10 μM, 1-16 h. The protocol: Cell viability was assessed using MTS assay kit (Promega). 1 × 10^5 U-2 OS cells were seeded on 10 mm culture dishes; cells were stained with or without CO-1 ([…]) for 1–16 h. After incubation, the MTS reagent was added and incubated for 4 h at 37 °C. Absorbance was determined at 490 nm using SpectraMax M2 plate reader.
Supplementary Figure 18 Cell viability test for CO-1.
Cell viability was measured by MTS assay for concentration of probe at 0 μM, 0.3 μM, 1 μM, 3 μM and 10 μM in 1 hour, 4 hours and 16 hours incubation in U-2 OS cells. Absorbance was determined at 490 nm. Each absorbance value was subtracted with blank sample (blank sample = cells containing compound at respective concentration without MTS reagent). Cell viability was calculated by: (viable cells)% = (OD of treated sample/OD of untreated sample)×100. Data are presented as the means + SD obtained from triplicate experiments.
(also on this page, place not known: 25 50 75 100 hour (%) Incubation time CO-1 0 μM μM μM 0 0.3 1 3 μM 10 μM 1 4 hours 16 hours U -2 ( blank reagent) . Cell viability)
(1 picture or pasted object on this page, not shown here)

The subject of data set [1] is azide-tagged intracellular organelles in U-2 OS cells. The data set can be described thus: Live cell SPAAC labelling of azide-tagged organelles (mitochondria, lysosome, golgi apparatus). The data set is classed as cell-based, human. Conditions: U-2 OS cells pre-treated with TPP-Az, Sphingo-Az or Morph-Az, 2 μM probe, 1 h, 37 °C. From the text:
Next, we investigated intracellular imaging in live cells using CO-1. We synthesized various azide-bearing reporters: TPP-Az, a triphenylphosphonium analogue which accumulates in mitochondria; Sphingo-Az, a ceramide analogue to target golgi apparatus; and Morph-Az, an azide derivative with morpholine moiety as a directing group for lysosome (Fig. 3a). SPAAC covalent labelling reactions between CO-1 and all azide reporters in vitro were clean and rapid. We anticipated that the cell permeable CO-1 is capable of labelling any azide reporters effectively, regardless the reporters' cellular localization. We added 2 μM CO-1 to the growth media of U-2 OS cells pre-treated with TPP-Az, Sphingo-Az or Morph-Az separately. Confocal fluorescence images were then taken after probe washing.
Figure 3 Live cell imaging with CO-1. (a) Chemical structures and schematic illustration of the covalent labelling of azide-tagged organelles using CO-1 in live cells. (b) Fluorescence imaging of mitochondria, lysosome and golgi apparatus in U-2 OS cells labelled with CO-1. Cells pre-treated with TPP-Az, Morph-Az or Sphingo-Az were incubated with 2 μM CO-1 in growth media at 37 °C for 1 h and followed by counterstaining with organelle trackers. Scale bar, 15 μm. (c) Fluorescence imaging of histone H2B in live U-2 OS. U-2 OS cells were co-transfected with plasmids pIre-Azi3 and pmH2B-6-mKate2-16tag to incorporate UAA Azi into H2B-mKate2 at site 16. After Azi incorporation, cells were labelled with 10 μM CO-1 for 90 min at 37 °C. Cells were then washed and imaged. The mKate2 (red) signals were detected in cell nuclei only, and colocalized with the CO-1 (green) signals in the merged image. Scale bar, 5 μm.
U-2 OS cells were treated with 5 μM TPP-Az, in culture media for 2 h at 37 °C. After incubation, cells were washed and added with 2 μM CO-1 probe. Labelling was allowed to proceed for 1 h at 37 °C in the incubator chamber. […]
Fluorescence imaging of mitochondria, lysosome and golgi apparatus in U-2 OS cells labeled with CO-1H. […] In contrast to CO-1, high fluorescence background from CO-1H was observed. […]

Data set [2] in a line: Spectroscopic properties (absorbance, emission, extinction coefficient, quantum yield). To be noted: 10 μM in DMSO. The format is physicochemical. Here is the method: Supplementary Table 9. Spectrocopic properties and purity table for CO-1 and CO-1H.
Calculated mass, experimental mass, absorbance maximum (λabs), fluorescent emission maximum (λem), extinction coefficient (ε), quantum yield (Φ), and purity. mass m/z λabs λem ε Purity […]
Absorbance and fluorescence emission data were recorded by a Synergy 4, Biotek Inc. fluorescent plate reader at 10 μM concentration in DMSO in 96-well plates. HRMS a: found mass (M-H), b: tetramethyl BODIPY was used as standard, c: purity data was calculated on the basis of the integration in HPLC trace at 254 nm.

For `Cc1cc(C)n2c1C(CCNC(=O)CCC(=O)OCC1C3CCC#CCCC31)=C1C=CC=[N+]1[B-]2(F)F` (stereo not shown) [CO-1], the “Cell viability / toxicity” value with U-2 OS cells is “nontoxic and did not interfere with cell proliferation”. Further, in data set [1], the “Fluorescence background after washing” value is on record as “Clean fluorescence background” and the “Labelling of azide-tagged organelles” value was “clearly labelled the azide-tagged intracellular organelles in live cells”. Further, in data set [2], the ε worked out at 66668 M⁻¹ cm⁻¹, the λabs was 490 nm and the λem came out at 510 nm. Besides, the “QY (Φ)” value in data set [2] (tetramethyl BODIPY as standard) worked out at 0.66.
